Test results reported in US12496329B2, “Methods of using and compositions including an incretin analog” (Eli Lilly and Company, priority 2021, dated 2025).
Marks after values point to notes of the source that are not given here.

Assay: MAD study in individuals with diabetes: pharmacodynamics (OGTT, glucose, HbA1c, body weight, appetite VAS)
Assay type: in vivo, human
Set-up: OGIS Index, change from baseline / Disposition Index, change from baseline: unit not given here
Details: for Disposition Index, change from baseline / HOMA2-B, change from baseline / HOMA2-IR, change from baseline / Insulin Sensitivity Matsuda Index, change from baseline / Insulinogenic Index, change from baseline / OGIS Index, change from baseline / OGTT C-peptide AUC (0-2 hr), change from baseline / OGTT GCG AUC (0-2 hr), change from baseline / OGTT glucose AUC (0-2 hr), change from baseline / OGTT insulin AUC (0-2 hr), change from baseline / Daily mean plasma glucose, change from baseline / HbA1c, change from baseline: 1.5 mg Dula
Description: Studies are designed to evaluate the safety, tolerability, PD and PK of the GGG tri-receptor agonist (SEQ ID NO:1) in individuals with diabetes. The MAD study is a randomized, investigator- and participant-blind, placebo-controlled, multiple-ascending dose, single-site study conducted in individuals with diabetes (i.e., females or males aged 20-70 years, inclusive, with T2DM for at least 3 months and HbA1c at lead-in and screening of ≥7.0% and ≤10.5% and treated with diet and exercise alone or a stable dose of metformin for at least 3 months prior to screening, with stable body weight for 3 months prior to randomization and with a BMI of 23-50 kg/m^2 at screening).
Dose escalation of the GGG tri-receptor agonist is assessed over 12 weeks in cohorts with a starting dose of 0.5 mg. One cohort of 13 individuals is administered 0.5 mg for 12 weeks. A second cohort of 13 individuals is administered 1.5 mg for 12 weeks. A third cohort of 15 individuals is administered 3.0 mg for 12 weeks. A fourth cohort of 15 individuals is administered 3.0 mg for 4 weeks and then administered 6.0 mg for 8 weeks. A fifth cohort of 16 individuals is administered 3.0 mg for 2 weeks, administered 6.0 mg for 2 weeks, administered 9.0 mg for 4 weeks, and then administered 12 mg for 4 weeks. Alternate dose increment steps may be introduced based on emerging safety and tolerability data from the preceding cohorts, and the dose increment steps can be reduced. As a non-limiting example, in Cohort 4, escalation from starting dose of 3 mg may occur via a step-through dose of 4.5 mg before attaining 6 mg, in Cohort 5, escalation from starting dose of 3 to 12 mg may occur via an additional step through dose level of 4.5 mg, prior to the planned doses 6 and 9 mg. In addition to these proposed alternate regimens in Cohort 4 and Cohort 5, planned dose for escalation between cohorts and within cohorts may be further reduced if warranted by safety or tolerability data.
C-peptide, glucagon, glucose and insulin are measured for an oral glucose tolerance test (OGTT) during the study using methods known in the art for each of the analytes. In addition, HbA1c is measured at Days 1, 29, 57, 78 and 85, as well as at Week 16. The following parameters are derived from the OGTT to assess insulin resistance and β cell function: Homeostatic model assessment (HOMA)-B, HOMA-IR, insulinogenic index, insulin sensitivity (Matsuda Index) and oral glucose insulin sensitivity (OGIS).
Insulin sensitivity is calculated as per the below equation: […]
Insulin sensitivity (Matsuda Index) is calculated as per the below equation: […]
Disposition index is calculated as (IGI*ISI).
OGIS is calculated as per the below equation: […]
Satiety VAS is measured after fasting on Days 1, 8, 15, 22, 29, 36, 43, 50, 57, 64, 71, 78 and 80, as well as at Week 16. Appetite sensations are assessed using a VAS for parameters of hunger, fullness, satiety and prospective food intake, and an overall appetite score is calculated as described above in the SAD study.

[1] = 1.5 mg dulaglutide, 12-week treatment

## dulaglutide
Day 2
  Disposition Index, change from baseline: 0.0812
  HOMA2-B, change from baseline: 31.2
  HOMA2-IR, change from baseline: 0.360
  Insulin Sensitivity Matsuda Index, change from baseline: −0.0208
  Insulinogenic Index, change from baseline: 0.119
  OGIS Index, change from baseline: 23.5
  OGTT C-peptide AUC (0-2 hr), change from baseline: 879 pmol·h/L
  OGTT GCG AUC (0-2 hr), change from baseline: -1.21 pmol·h/L
  OGTT glucose AUC (0-2 hr), change from baseline: -9.10 mmol·h/L
  OGTT insulin AUC (0-2 hr), change from baseline: 322 pmol·h/L
Day 3
  Daily mean plasma glucose, change from baseline: −2.60* mmol/L
Day 29
  HbA1c, change from baseline: −0.646%
Day 30
  Disposition Index, change from baseline: 0.0866
  HOMA2-B, change from baseline: 42.2
  HOMA2-IR, change from baseline: 0.480
  Insulin Sensitivity Matsuda Index, change from baseline: −0.476
  Insulinogenic Index, change from baseline: 0.130
  OGIS Index, change from baseline: 19.4
  OGTT C-peptide AUC (0-2 hr), change from baseline: 1350 pmol·h/L
  OGTT GCG AUC (0-2 hr), change from baseline: -4.52 pmol·h/L
  OGTT glucose AUC (0-2 hr), change from baseline: -10.6 mmol·h/L
  OGTT insulin AUC (0-2 hr), change from baseline: 519 pmol·h/L
Day 31
  Daily mean plasma glucose, change from baseline: −3.89* mmol/L
Day 57
  HbA1c, change from baseline: −0.997%
Day 59
  Daily mean plasma glucose, change from baseline: −3.21* mmol/L
Day 78
  HbA1c, change from baseline: −1.07%
Day 79
  Disposition Index, change from baseline: 0.0481
  HOMA2-B, change from baseline: 25.9
  HOMA2-IR, change from baseline: 0.600
  Insulin Sensitivity Matsuda Index, change from baseline: −1.14
  Insulinogenic Index, change from baseline: 0.105
  OGIS Index, change from baseline: 38.1
  OGTT C-peptide AUC (0-2 hr), change from baseline: 354 pmol·h/L
  OGTT GCG AUC (0-2 hr), change from baseline: -1.28 pmol·h/L
  OGTT glucose AUC (0-2 hr), change from baseline: -8.44 mmol·h/L
  OGTT insulin AUC (0-2 hr), change from baseline: 188 pmol·h/L
Day 80
  Daily mean plasma glucose, change from baseline: −3.73* mmol/L
Day 85
  HbA1c, change from baseline: −0.960%
Day 106
  HbA1c, change from baseline: −0.538%
[1]
  fullness scores: increase from baseline
  hunger scores: decrease from baseline
  prospective food consumption scores: greatest decreases from baseline
  satiety scores: increase from baseline
1.5 mg, 12-weeks treatment
  maximum decrease from baseline in mean body weight: 1.3 kg
1.5 mg, Day 85
  decrease from baseline in mean waist circumference: 4.9 cm
